Test results from paper PMC2841005 (Developmental and comparative immunology, 2010).

Legend:
Type in all cases: cell-based
[1] = system: Gram-negative and Gram-positive bacterial strains; assay: Antibacterial activity against the panel of strains, broth micro-dilution assay
bacteria = assay: Antibacterial test of the first synthetic 27-residue repeat peptide; details: data not shown
E. coli O157:H7 = assay: MIC, broth micro-dilution assay

| Sequence | Antibacterial activity against the bacterial strains tested (in words) [1] | Killing of bacteria (in words) (bacteria) | Activity against E. coli O157:H7 (in words) (E. coli O157:H7) |
| --- | --- | --- | --- |
| ESGNEPLWLYQGDNIPKAPSTAEHPFLPSIIDDVKFNPDRRYA [LP2A] | did not affect the bacterial growth | – | – |
| ESGNEPLWLYQGDNIPKAPSTAEHPFLPSIIDDVKFNPDRRYAR [LP2] | did not exhibit antimicrobial activity | – | – |
| RSVETLASQEHLSSLPMDSQETLLRGT | – | did not kill any bacteria | – |
| SLGTPDHYHGGRHSISRGSQSTGPTHPGYNRRNA [LP3A] | inactive | – | inactive |
| SLGTPDHYHGGRHSISRGSQSTGPTHPGYNRRNAR [LP3] | active against bacteria | – | low activity |
| SVETLASQEHLSSLPMDSQETLLRGT [LP4A] | inactive | – | – |
| SVETLASQEHLSSLPMDSQETLLRGTR [LP4] | no activity | – | – |
